Experimental data from article PMC8359193, “Summary of reference chemicals evaluated by the fish short‐term reproduction assay, OECD TG229, using Japanese Medaka, Oryzias latipes” (Journal of Applied Toxicology, 2021).

Assays:
fathead minnow = system: fathead minnow; design: method as in Panter et al. (2004); conditions: 21-day exposure; ref Panter et al. (2004); cited from earlier work
medaka ARβ (mARβ) = medaka ARβ (mARβ) (Oryzias latipes, UniProt D1MV73); assay: Medaka ARβ reporter gene assay (RGA), antagonist assay with 50 nM 11KT, HepG2 cells; format: cell-based, Japanese medaka (Oryzias latipes); conditions: 50 nM 11KT-induced mARβ activity
Chain of medaka ARβ (mARβ) (D1MV73 entry or part of it): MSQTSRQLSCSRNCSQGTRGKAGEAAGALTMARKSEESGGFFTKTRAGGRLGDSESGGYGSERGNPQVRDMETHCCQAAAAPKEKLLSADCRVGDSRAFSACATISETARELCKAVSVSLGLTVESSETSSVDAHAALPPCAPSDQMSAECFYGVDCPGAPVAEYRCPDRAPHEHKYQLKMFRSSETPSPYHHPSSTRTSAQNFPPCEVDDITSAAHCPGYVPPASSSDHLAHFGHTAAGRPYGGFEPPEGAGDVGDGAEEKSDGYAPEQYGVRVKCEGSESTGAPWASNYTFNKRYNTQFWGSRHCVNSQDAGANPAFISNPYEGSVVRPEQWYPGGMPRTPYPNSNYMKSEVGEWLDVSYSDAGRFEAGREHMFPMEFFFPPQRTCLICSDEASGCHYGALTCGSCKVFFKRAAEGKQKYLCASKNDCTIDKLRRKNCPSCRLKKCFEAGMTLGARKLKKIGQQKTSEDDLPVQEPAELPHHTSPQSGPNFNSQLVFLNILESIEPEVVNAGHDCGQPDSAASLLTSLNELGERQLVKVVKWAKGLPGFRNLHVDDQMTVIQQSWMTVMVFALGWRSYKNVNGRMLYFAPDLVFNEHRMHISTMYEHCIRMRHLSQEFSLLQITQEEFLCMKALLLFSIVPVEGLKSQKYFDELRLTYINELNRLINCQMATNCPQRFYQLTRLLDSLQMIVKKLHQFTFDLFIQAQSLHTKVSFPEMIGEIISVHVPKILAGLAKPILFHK
Protocol: To support interpretation of the biological effects observed in the FSTRA studies, in vitro RGAs using medaka Esr1 (mEsr1) and medaka ARβ (mARβ) were performed for the 16 test chemicals. In the present study, Esr1 and ARβ, which are ancestral subtypes among Esrs and ARs in Japanese medaka, were selected based on the phylogenetical analyses of Esr and AR with each receptor RGAs (Ogino et al., [2016], [2018]; Tohyama et al., [2015]).
The mARβ RGA in which the agonist and the antagonist assays were performed as same as the mEsr1 RGA was carried out according to the methods previously reported by Lange et al. ([2015]). For the assays, human liver cancer cell line, HepG2, was used as the host cells, and mARβ/pcDNA3.1, MMTV‐Luc, and pRL‐TK‐Rlu were used as mARβ expression vector, reporter vector, and internal control vector, respectively. Other materials and methods, for example, operating procedure, reagents, and incubation conditions, were almost the same as the mEsr1 RGA previously described beside that 11KT (Sigma‐Aldrich, purity 99.0%), a main AR ligand in fish, was competitively spiked at 50 nM into the test medium with test chemicals in antagonist assay. In the agonist and the antagonist assays, 11KT and 2‐hydroxyflutamide (2HFLT; Sigma‐Aldrich, purity 98.5%) were used as positive controls, respectively.
Effect concentrations, that is, EC50 (a half maximal effective concentration) in the agonist assay and IC50 (a half maximal inhibitory concentration) in the antagonist assay, were estimated by nonlinear curve fitting (e.g., three parameters logistic regression curve) using GraphPad Prism (GraphPad Software Inc., La Jolla, CA, USA).

[1] = system: Japanese medaka (Oryzias latipes); assay: Fish short-term reproduction assay (FSTRA, OECD TG229), 21-day flow-through exposure; conditions: for Fertility rate (%) / Mortality (%) Female / Mortality (%) Male / Number of fertilized eggs / Number of total eggs / SSC Female / SSC Male / VTG (ng/mg of liver) Female / VTG (ng/mg of liver) Male: 21 days; for GSI Female / GSI Male / HSI Female / HSI Male / Length Female / Length Male / Weight Female / Weight Male: at completion of exposure
Protocol: The experimental studies on the FSTRA for the 16 chemicals were conducted in two laboratories in Japan, the National Institute for Environmental Studies (NIES, Lab‐1) and the Institute of Environmental Ecology, IDEA Consultants Inc. (Lab‐2), in accordance with OECD TG229 (OECD, [2012a]) (Table 1).
The NIES‐R strain of Japanese medaka (O. latipes), one of the orange‐red varieties, was used in all the 16 chemical studies. For the studies, healthy and mature male and female medakas at 16 ± 2 weeks old were selected from a single‐stock population, which were bred within the test facilities. The test fish were maintained in conditions similar to the assay for at least 7 days, and spawning status was checked during the acclimation period. On the day the chemical exposure commenced, to ensure balanced distribution of test fish between the treatment groups for the reproductive status of the fish, the replicate vessels (fish tanks), with each containing three male and female medaka, were distributed to each treatment and control group, for example, by a randomized block design based on the number of fertilized eggs laid in the last 5–7 days during the acclimation, in each assay.
The water solubility of the test chemical was also taken into consideration when deciding the highest test concentration. To set the lower concentrations, a spacing factor ranging between two and five was used. All assays included a dilution water control (DWC).
Test solutions at the selected concentrations were prepared by diluting a stock solution, which was prepared by an adequate method depending on the physicochemical properties of the test chemicals, for example, by simply mixing the test chemical in dilution water by stirring and/or sonicating for an appropriate time or by using a solid–liquid saturator. In the two laboratories, flow‐through exposure systems, in which a series of test solutions at the target concentrations can be continuously prepared and delivered to test vessels at controlled flow rates (Haselman et al., [2016]; Watanabe et al., [2017]), were used for the exposure experiments.
In the FSTRA, three mature adult males and females in a test vessel were exposed together to the test chemicals in flow‐through condition for 3 weeks. In all the assays, each treatment group, including the DWC group, contained four replicate tanks. During the exposure period, the fish were fed a sufficient amount of live brine shrimp nauplii (newly hatched Artemia sp.) for daily spawning ad libitum. Fecal material in the tanks was appropriately removed by siphoning after feeding. Water temperature of test solutions was recorded for at least one vessel in each treatment and control group every day and for all vessels at least once a week. Furthermore, dissolved oxygen and pH of test solutions were measured for all test vessels at least once a week. Mortality and abnormal behavior and appearance in the fish exposed to test chemicals were daily observed, and any fish that died were removed from the tank as soon as possible. To assess the reproductive status, all eggs females spawned were collected every day. At the completion of the chemical exposure, surviving fish in each tank were sampled.
The eggs females released on the bottom of the tank were collected by siphoning, and the egg clutches still on female abdomen were carefully picked from the body of the females captured using a small net. All the eggs collected were microscopically observed and separately counted for fertilized and unfertilized.

CC(C)C(=O)Nc1ccc([N+](=O)[O-])c(C(F)(F)F)c1 [FLT, Flutamide]
concentration that significantly reduced the number of nuptial tubercles in males (fathead minnow): 938.6 µg/L
mARβ antagonist activity (in words) (medaka ARβ (mARβ)): inhibited
Fertility rate (%) ([1]; measured conc. 119 μg/L): 94%
Mortality (%) Female ([1]; measured conc. 119 μg/L): 0%
Mortality (%) Male ([1]; measured conc. 119 μg/L): 0%
Number of fertilized eggs ([1]; measured conc. 119 μg/L): 25
Number of total eggs ([1]; measured conc. 119 μg/L): 26 ± 2.3 /female/day
SSC Female ([1]; measured conc. 119 μg/L): 0 ± 0
SSC Male ([1]; measured conc. 119 μg/L): 86 ± 18
VTG (ng/mg of liver) Female ([1]; measured conc. 119 μg/L): 908 ± 255 ng/mg of liver
VTG (ng/mg of liver) Male ([1]; measured conc. 119 μg/L): 47.9 ± 41.8 ng/mg of liver
GSI Female ([1]; measured conc. 119 μg/L): 10.1%
GSI Male ([1]; measured conc. 119 μg/L): 1.10%
HSI Female ([1]; measured conc. 119 μg/L): 4.2%
HSI Male ([1]; measured conc. 119 μg/L): 2.0%
Length Female ([1]; measured conc. 119 μg/L): 34.2 mm
Length Male ([1]; measured conc. 119 μg/L): 35.6 mm
Weight Female ([1]; measured conc. 119 μg/L): 426 mg
Weight Male ([1]; measured conc. 119 μg/L): 445 mg
Fertility rate (%) ([1]; measured conc. 248 μg/L): 94%
Mortality (%) Female ([1]; measured conc. 248 μg/L): 0%
Mortality (%) Male ([1]; measured conc. 248 μg/L): 0%
Number of fertilized eggs ([1]; measured conc. 248 μg/L): 26
Number of total eggs ([1]; measured conc. 248 μg/L): 28 ± 3.1 /female/day
SSC Female ([1]; measured conc. 248 μg/L): 0 ± 0
SSC Male ([1]; measured conc. 248 μg/L): 82 ± 15
VTG (ng/mg of liver) Female ([1]; measured conc. 248 μg/L): 970 ± 200 ng/mg of liver
VTG (ng/mg of liver) Male ([1]; measured conc. 248 μg/L): 35.8 ± 41.5 ng/mg of liver
GSI Female ([1]; measured conc. 248 μg/L): 10.9%
GSI Male ([1]; measured conc. 248 μg/L): 1.10%
HSI Female ([1]; measured conc. 248 μg/L): 4.6%
HSI Male ([1]; measured conc. 248 μg/L): 2.1%
Length Female ([1]; measured conc. 248 μg/L): 33.7 mm
Length Male ([1]; measured conc. 248 μg/L): 35.0 mm
Weight Female ([1]; measured conc. 248 μg/L): 428 mg
Weight Male ([1]; measured conc. 248 μg/L): 394 mg
Fertility rate (%) ([1]; measured conc. 497 μg/L): 96%
Mortality (%) Female ([1]; measured conc. 497 μg/L): 0%
Mortality (%) Male ([1]; measured conc. 497 μg/L): 0%
Number of fertilized eggs ([1]; measured conc. 497 μg/L): 27
Number of total eggs ([1]; measured conc. 497 μg/L): 28 ± 3.0 /female/day
SSC Female ([1]; measured conc. 497 μg/L): 0 ± 0
SSC Male ([1]; measured conc. 497 μg/L): 82 ± 16
VTG (ng/mg of liver) Female ([1]; measured conc. 497 μg/L): 812 ± 159 ng/mg of liver
VTG (ng/mg of liver) Male ([1]; measured conc. 497 μg/L): 38.7 ± 44.8 ng/mg of liver
GSI Female ([1]; measured conc. 497 μg/L): 10.3%
GSI Male ([1]; measured conc. 497 μg/L): 1.20%
HSI Female ([1]; measured conc. 497 μg/L): 4.8%
HSI Male ([1]; measured conc. 497 μg/L): 1.9%
Length Female ([1]; measured conc. 497 μg/L): 34.3 mm
Length Male ([1]; measured conc. 497 μg/L): 35.9 mm
Weight Female ([1]; measured conc. 497 μg/L): 470 mg
Weight Male ([1]; measured conc. 497 μg/L): 429 mg
Fertility rate (%) ([1]; measured conc. 925 μg/L): 93%
Mortality (%) Female ([1]; measured conc. 925 μg/L): 0%
Mortality (%) Male ([1]; measured conc. 925 μg/L): 0%
Number of fertilized eggs ([1]; measured conc. 925 μg/L): 27
Number of total eggs ([1]; measured conc. 925 μg/L): 29 ± 3.1 /female/day
SSC Female ([1]; measured conc. 925 μg/L): 0 ± 0
SSC Male ([1]; measured conc. 925 μg/L): 93 ± 16
VTG (ng/mg of liver) Female ([1]; measured conc. 925 μg/L): 830 ± 131 ng/mg of liver
VTG (ng/mg of liver) Male ([1]; measured conc. 925 μg/L): 50.8 ± 53.8 ng/mg of liver
GSI Female ([1]; measured conc. 925 μg/L): 11.5%
GSI Male ([1]; measured conc. 925 μg/L): 1.10%
HSI Female ([1]; measured conc. 925 μg/L): 4.5%
HSI Male ([1]; measured conc. 925 μg/L): 2.0%
Length Female ([1]; measured conc. 925 μg/L): 34.2 mm
Length Male ([1]; measured conc. 925 μg/L): 35.8 mm
Weight Female ([1]; measured conc. 925 μg/L): 453 mg
Weight Male ([1]; measured conc. 925 μg/L): 416 mg
effect on fecundity (number of total eggs), in words ([1]; within the test concentrations, 21-day exposure): No effect
